According to PMC12733323, “Novel Mono-Substituted 4H-1,2,6-Thiadiazines with Antioxidant and Anti-Lipoxygenase Activities” (International Journal of Molecular Sciences, 2025):
Like-named read-outs stand apart in the source and are kept apart here.

Tests used:
[1] = Interaction with the stable free radical DPPH (reducing activity)
Protocol: The synthesized derivatives were tested for their interaction with the stable free radical 2,2-diphenyl-1-picrylhydrazyl (DPPH) at a concentration of 100 μM after 20 and 60 min (Table 4). DPPH is widely used as a standard method for evaluating antioxidant activity. […] However, lipophilic compounds typically dissolve efficiently in organic solvents when they react with DPPH. The relationship between antioxidant activity and lipophilicity was reported in previous studies.
In vitro assays were carried out to evaluate the reducing activity of the novel derivatives against the DPPH stable radical. Free radical scavenging activity was determined by measuring absorbance at 517 nm after 20 and 60 min at room temperature. NDGA served as the reference compound. (Table 4).

[2] = target: T1, soybean lipoxygenase (Glycine max, UniProt P08170); test: Inhibition of soybean lipoxygenase; assay type: biochemical; conditions: for inhibition at 100 µM: read-out: LOX % Inhibition 100 μM
T1 sequence (P08170 1-839): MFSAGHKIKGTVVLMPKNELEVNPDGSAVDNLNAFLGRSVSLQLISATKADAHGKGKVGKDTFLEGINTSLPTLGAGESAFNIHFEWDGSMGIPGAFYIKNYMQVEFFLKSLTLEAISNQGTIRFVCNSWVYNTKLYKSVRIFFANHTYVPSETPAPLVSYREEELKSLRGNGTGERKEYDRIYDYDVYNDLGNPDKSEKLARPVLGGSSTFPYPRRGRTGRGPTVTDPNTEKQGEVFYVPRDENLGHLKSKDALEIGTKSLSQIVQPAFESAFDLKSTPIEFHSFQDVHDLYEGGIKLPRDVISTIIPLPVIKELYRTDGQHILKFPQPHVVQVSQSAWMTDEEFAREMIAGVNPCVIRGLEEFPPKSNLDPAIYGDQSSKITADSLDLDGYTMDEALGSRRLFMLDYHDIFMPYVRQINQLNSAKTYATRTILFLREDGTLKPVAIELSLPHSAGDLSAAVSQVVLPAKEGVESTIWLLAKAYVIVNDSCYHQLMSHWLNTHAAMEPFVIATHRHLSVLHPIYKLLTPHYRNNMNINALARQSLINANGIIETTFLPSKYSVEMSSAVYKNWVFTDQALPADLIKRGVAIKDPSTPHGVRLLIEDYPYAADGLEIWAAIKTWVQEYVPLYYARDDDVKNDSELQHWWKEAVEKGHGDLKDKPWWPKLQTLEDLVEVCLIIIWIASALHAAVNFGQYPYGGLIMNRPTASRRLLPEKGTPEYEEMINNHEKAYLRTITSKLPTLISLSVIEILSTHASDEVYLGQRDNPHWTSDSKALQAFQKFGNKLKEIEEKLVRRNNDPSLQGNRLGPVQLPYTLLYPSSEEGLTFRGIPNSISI
Protocol: Lipoxygenase (LOX) plays a key role in the formation of leukotrienes, which are important inflammatory mediators. Leukotrienes are considered key therapeutic targets in inflammatory diseases due to their role. Soybean lipoxygenase (LOX), a plant-based enzyme, has long been used as a model system to study the structural and functional characteristics of the lipoxygenase family due to its significant homology with human 5-LOX [39].
Sodium linoleate (0.1 mM), 0.2 mL of soybean lipoxygenase solution (1/9 × 10^−4 w/v in saline), and 10 μL of the test compound stock solution (10 mM in DMSO) were incubated at room temperature. The formation of 13-hydroperoxy-linoleic acid was monitored by measuring absorbance at 234 nm. […] A couple of concentrations of the test compounds were used to calculate the IC50 values.

[3] = Inhibition of AAPH-induced linoleic acid peroxidation
From the text: In the lipid peroxidation assay, sodium linoleate was used as the substrate, while 2,2′-azobis(2-methylpropionamidine) dihydrochloride (AAPH) was the peroxyl radical initiator. The formation of 13-hydroperoxy-linoleic acid from linoleic acid was observed by UV-Vis absorption measurements at 234 nm. Trolox was used as a reference compound.
AAPH was used as an alkyl peroxyl radical inducer. In this experiment, the compounds’ ability to prevent linoleic acid oxidation by alkyl peroxyl radicals through absorbance changes at 234nm was evaluated, corresponding to the production of 13-hydroperoxy-linoleic acid. Trolox was used as the reference compound.

Compound	RA%, DPPH, 20 min (100 µM) [1]	RA%, DPPH, 60 min (100 µM) [1]	IC50 [2] [µM]	%AAPH (100 µM) [3]	inhibition at 100 µM [2] [%]	IC50 ([2]; read-out: LOX IC50) [µM]	RA%, DPPH, 60 min (100 µM) ([1]; listed as ΝDGA) [%]
O=c1c(Cl)nsnc1N1CCN(c2ccccc2)CC1 [Compound 9a, 3-Chloro-5-(4-phenylpiperazin-1-yl)-4H-1,2,6-thiadiazin-4-one]	7%	6%	7.5	15%	–	–	–
O=c1c(Cl)nsnc1N1CCN(C(c2ccccc2)c2ccccc2)CC1 [Compound 9b, 3-(4-Benzhydrylpiperazin-1-yl)-5-chloro-4H-1,2,6-thiadiazin-4-one]	2%	2%	55	20%	–	–	–
N#CC(C#N)=C1C(Cl)=NSN=C1N1CCN(c2ccccc2)CC1 [Compound 10a, 2-[3-Chloro-5-(4-phenylpiperazin-1-yl)-4H-1,2,6-thiadiazin-4-ylidene]malononitrile]	16%	15%	–	27%	46	–	–
N#CC(C#N)=C1C(Cl)=NSN=C1N1CCN(C(c2ccccc2)c2ccccc2)CC1 [Compound 10b, 2-[3-(4-Benzhydrylpiperazin-1-yl)-5-chloro-4H-1,2,6-thiadiazin-4-ylidene]malononitrile]	no	no	–	No	–	67.5	–
Cc1ccnc(Sc2nsnc(Cl)c2=O)n1 [Compound 11a, 3-Chloro-5-[(4-methylpyrimidin-2-yl)thio]-4H-1,2,6-thiadiazin-4-one]	2%	no	–	No	31	–	–
Cn1nnnc1Sc1nsnc(Cl)c1=O [Compound 11b, 3-Chloro-5-[(1-methyl-1H-tetrazol-5-yl)thio]-4H-1,2,6-thiadiazin-4-one]	3%	3%	–	45%	44	–	–
O=c1c(Cl)nsnc1Sc1nc2ccccc2o1 [Compound 11c, 3-(Benzo[d]oxazol-2-ylthio)-5-chloro-4H-1,2,6-thiadiazin-4-one]	21%	22%	77.5	5%	–	–	–
CC(=O)Nc1ccc(Sc2nsnc(Cl)c2=O)cc1 [Compound 11d, N-{4-[(5-Chloro-4-oxo-4H-1,2,6-thiadiazin-3-yl)thio]phenyl}acetamide]	1%	2%	85	43%	–	–	–
O=c1c(Cl)nsnc1Sc1nnnn1-c1ccccc1 [Compound 11e, 3-Chloro-5-[(1-phenyl-1H-tetrazol-5-yl)thio]-4H-1,2,6-thiadiazin-4-one]	15%	17%	–	No	50	–	–
Cn1cnnc1Sc1nsnc(Cl)c1=O [Compound 11f, 3-Chloro-5-[(4-methyl-4H-1,2,4-triazol-3-yl)thio]-4H-1,2,6-thiadiazin-4-one]	10%	12%	52.5	7%	–	–	–
O=c1c(Cl)nsnc1Sc1nccs1 [Compound 11g, 3-Chloro-5-(thiazol-2-ylthio)-4H-1,2,6-thiadiazin-4-one]	10%	7%	–	No	40	–	–
O=c1c(Cl)nsnc1Sc1nc2ccccc2s1 [Compound 11h, 3-(benzo[d]thiazol-2-ylthio)-5-chloro-4H-1,2,6-thiadiazin-4-one]	8%	1%	–	No	33	–	–
CCOc1ccc2nc(Sc3nsnc(Cl)c3=O)sc2c1 [Compound 11i, 3-Chloro-5-[(6-ethoxybenzo[d]thiazol-2-yl)thio]-4H-1,2,6-thiadiazin-4-one]	3%	no	67.5	No	–	–	–
Cc1ccnc(SC2=NSN=C(Cl)C2=C(C#N)C#N)n1 [Compound 12a, 2-{3-Chloro-5-[(4-methylpyrimidin-2-yl)thio]-4H-1,2,6-thiadiazin-4-ylidene}malononitrile]	82%	90%	–	18%	41	–	–
Cn1nnnc1SC1=NSN=C(Cl)C1=C(C#N)C#N [Compound 12b, 2-{3-Chloro-5-[(1-methyl-1H-tetrazol-5-yl)thio]-4H-1,2,6-thiadiazin-4-ylidene}malononitrile]	27%	36%	75	No	–	–	–
N#CC(C#N)=C1C(Cl)=NSN=C1Sc1nc2ccccc2o1 [Compound 12c, 2-[3-(Benzo[d]oxazol-2-ylthio)-5-chloro-4H-1,2,6-thiadiazin-4-ylidene]malononitrile]	89%	92%	–	70%	27	–	–
CC(Cc1ccc(O)c(O)c1)C(C)Cc1ccc(O)c(O)c1 (centres unmarked) [NDGA, Nordihydroguaiaretic acid, reference compound]	87%	87%	–	–	–	–	93
Cc1c(C)c2c(c(C)c1O)CCC(C)(C(=O)O)O2 (centres unmarked) [Trolox, reference compound]	–	–	–	93%	–	–	–
